What was measured:
Type in all cases: biochemical
[1] = molecular target: T1, ABHD6 (Mus musculus, UniProt Q8R2Y0); assay: In vitro competitive activity-based protein profiling, mouse brain proteome (ABHD6); settings: mouse brain proteome; concentration not given (μM)
T1 construct: Brain; from tissue; host or cells: mouse brain proteome
T1 sequence (Q8R2Y0 1-336): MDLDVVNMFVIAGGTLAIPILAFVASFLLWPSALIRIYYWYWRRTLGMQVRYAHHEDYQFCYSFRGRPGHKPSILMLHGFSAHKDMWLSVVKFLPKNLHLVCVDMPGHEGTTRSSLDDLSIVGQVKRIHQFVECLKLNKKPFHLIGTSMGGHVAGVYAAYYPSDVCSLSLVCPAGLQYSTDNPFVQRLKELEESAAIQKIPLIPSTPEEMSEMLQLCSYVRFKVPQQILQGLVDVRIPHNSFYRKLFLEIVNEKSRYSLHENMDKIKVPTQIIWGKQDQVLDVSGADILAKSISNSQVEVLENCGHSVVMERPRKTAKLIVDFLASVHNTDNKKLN
Experimental: [The source words this procedure for another target and reports this target under the same test.] (§1) In Vitro Competitive Activity-Based Protein Profiling.
(§2) Proteomes (human prefrontal cortex or cell membrane fractions) (50 μL, 1.0 mg/mL total protein concentration) were preincubated with varying concentrations of inhibitors at 37° C. After 30 min, FP-Rh or HT-01 (1.0 μL, 50 μM in DMSO) was added and the mixture was incubated for another 30 min at room temperature. Reactions were quenched with SDS loading buffer (15 μL-4×) and run on SDS-PAGE.

[2] = molecular target: T2, MGLL (Mus musculus, UniProt O35678); assay: In vitro competitive activity-based protein profiling, mouse brain proteome (MGLL); parameters: IC50 MGLL Brain (Mouse, μM): scale not given here; settings: for % Inh MGLL Brain (Mouse, μM): concentration not given (μM)
T2 construct: Brain; from tissue; host or cells: mouse brain proteome
T2 sequence (O35678 1-303): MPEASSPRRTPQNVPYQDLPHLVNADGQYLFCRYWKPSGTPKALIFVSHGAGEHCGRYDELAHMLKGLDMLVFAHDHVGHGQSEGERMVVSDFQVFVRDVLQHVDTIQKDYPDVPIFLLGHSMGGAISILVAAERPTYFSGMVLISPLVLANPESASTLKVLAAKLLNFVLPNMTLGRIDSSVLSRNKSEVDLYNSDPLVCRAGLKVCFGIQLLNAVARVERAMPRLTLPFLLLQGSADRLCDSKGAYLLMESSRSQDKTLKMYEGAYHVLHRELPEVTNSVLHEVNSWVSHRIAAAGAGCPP

[3] = molecular target: T3, MAGL (Homo sapiens, UniProt Q99685); assay: In vitro competitive activity-based protein profiling (FP-Rh or HT-01 probe, gel-based); parameters: IC50 MGLL PC3 (Human, μM) / IC50 MGLL PFC (Human, μM): scale not given here; settings: for % Inh MGLL PC3 (Human, μM) / IC50 MGLL PC3 (Human, μM): PC3 cell proteome; for % Inh MGLL PC3 (Human, μM) / % Inh MGLL PFC (Human, μM): concentration not given (μM); for IC50 MGLL PFC (Human, μM) / % Inh MGLL PFC (Human, μM): prefrontal cortex (PFC) proteome
T3 construct: Proteomes (human prefrontal cortex or cell membrane fractions); from tissue
T3 sequence (Q99685 1-303): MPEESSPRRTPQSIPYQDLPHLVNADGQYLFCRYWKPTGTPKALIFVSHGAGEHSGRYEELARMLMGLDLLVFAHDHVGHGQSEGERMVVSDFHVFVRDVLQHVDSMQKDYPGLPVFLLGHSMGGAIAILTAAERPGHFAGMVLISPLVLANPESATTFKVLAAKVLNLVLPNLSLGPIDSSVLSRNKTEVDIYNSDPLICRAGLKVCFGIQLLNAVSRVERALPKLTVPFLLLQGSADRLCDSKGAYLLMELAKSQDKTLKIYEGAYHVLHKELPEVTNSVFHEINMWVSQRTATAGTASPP
Experimental: as §1, §2

With `CC(C)(C#Cc1c(Cl)cccc1CN1CCCC12CCN(C(=O)OC(C(F)(F)F)C(F)(F)F)CC2)C(=O)O` [Example 1, 4-(2-Chloro-6-((8-(((1,1,1,3,3,3-hexafluoropropan-2-yl)oxy)carbonyl)-1,8-diazaspiro[4.5]decan-1-yl)methyl)phenyl)-2,2-dimethylbut-3-ynoic acid] the “% Inh ABHD6 Brain (Mouse, μM)” value [1] was “# (# is ≤25%)”, the “% Inh MGLL Brain (Mouse, μM)” value [2] was “### (### is ≥75%)” and the “% Inh MGLL PC3 (Human, μM)” value [3] was “### (### is ≥75%)”.

`O=C(O)CN1CCN(c2cc(CN3CCCC34CCN(C(=O)OC(C(F)(F)F)C(F)(F)F)CC4)cc(C(F)(F)F)c2)CC1` [Example 2, 2-(4-(3-((8-(((1,1,1,3,3,3-Hexafluoropropan-2-yl)oxy)carbonyl)-1,8-diazaspiro[4.5]decan-1-yl)methyl)-5-(trifluoromethyl)phenyl)piperazin-1-yl)acetic acid] was tested, and the “% Inh ABHD6 Brain (Mouse, μM)” value [1] was “# (# is ≤25%)”, the “% Inh MGLL Brain (Mouse, μM)” value [2] was “### (### is ≥75%)” and the “% Inh MGLL PC3 (Human, μM)” value [3] was “### (### is ≥75%)”.

In the case of `O=C(O)CN1CCN(c2cc(C(F)(F)F)ccc2CN2CCCC23CCN(C(=O)OC(C(F)(F)F)C(F)(F)F)CC3)CC1` [Example 3, 2-(4-(2-((8-(((1,1,1,3,3,3-Hexafluoropropan-2-yl)oxy)carbonyl)-1,8-diazaspiro[4.5]decan-1-yl)methyl)-5-(trifluoromethyl)phenyl)piperazin-1-yl)acetic acid], the “% Inh ABHD6 Brain (Mouse, μM)” value [1] is reported as “# (# is ≤25%)”, the “IC50 MGLL Brain (Mouse, μM)” value [2] is reported as “* * *” and the “% Inh MGLL Brain (Mouse, μM)” value [2] is reported as “### (### is ≥75%)”. The “IC50 MGLL PC3 (Human, μM)” value [3] was “* * *”, the “% Inh MGLL PC3 (Human, μM)” value [3] was “### (### is ≥75%)” and the “IC50 MGLL PFC (Human, μM)” value [3] was “* * *”.

For `O=C(OC(C(F)(F)F)C(F)(F)F)N1CCC2(CCCN2Cc2cc(F)cc(C3(C(=O)O)CCCC3)c2)CC1` [Example 4, 1-(3-Fluoro-5-((8-(((1,1,1,3,3,3-hexafluoropropan-2-yl)oxy)carbonyl)-1,8-diazaspiro[4.5]decan-1-yl)methyl)phenyl)cyclopentane-1-carboxylic acid], the “% Inh ABHD6 Brain (Mouse, μM)” value [1] was “# (# is ≤25%)”, the “% Inh MGLL Brain (Mouse, μM)” value [2] was “### (### is ≥75%)” and the “IC50 MGLL PC3 (Human, μM)” value [3] was “* * *”. For the same molecule, the “% Inh MGLL PC3 (Human, μM)” value [3] was “### (### is ≥75%)”.

`CC(C)(C#Cc1cc(C(F)(F)F)ccc1CN1CCCC12CCN(C(=O)OC(C(F)(F)F)C(F)(F)F)CC2)C(=O)O` [Example 5, 4-(2-((8-(((1,1,1,3,3,3-Hexafluoropropan-2-yl)oxy)carbonyl)-1,8-diazaspiro[4.5]decan-1-yl)methyl)-5-(trifluoromethyl)phenyl)-2,2-dimethylbut-3-ynoic acid] was tested, and the “% Inh ABHD6 Brain (Mouse, μM)” value [1] was “# (# is ≤25%)”, the “% Inh MGLL Brain (Mouse, μM)” value [2] was “### (### is ≥75%)” and the “IC50 MGLL PC3 (Human, μM)” value [3] was “* * *”. The “% Inh MGLL PC3 (Human, μM)” value [3] was “### (### is ≥75%)”.

`O=C(O)CN1CC2CC1CN2c1cc(C(F)(F)F)ccc1CN1CCCC12CCN(C(=O)OC(C(F)(F)F)C(F)(F)F)CC2` (stereo not drawn) [Example 6] was tested, and the “IC50 MGLL PC3 (Human, μM)” value [3] was “* * *” and the “IC50 MGLL PFC (Human, μM)” value [3] was “* * *”.

With `O=C(OC(C(F)(F)F)C(F)(F)F)N1CCC2(CCCN2Cc2ccc(C(F)(F)F)cc2C2(C(=O)O)CCCC2)CC1` [Example 7, 1-(2-((8-(((1,1,1,3,3,3-hexafluoropropan-2-yl)oxy)carbonyl)-1,8-diazaspiro[4.5]decan-1-yl)methyl)-5-(trifluoromethyl)phenyl)cyclopentane-1-carboxylic acid] the “% Inh ABHD6 Brain (Mouse, μM)” value [1] was “# (# is ≤25%)”, the “% Inh MGLL Brain (Mouse, μM)” value [2] was “### (### is ≥75%)” and the “IC50 MGLL PC3 (Human, μM)” value [3] was “* * *”. The “% Inh MGLL PFC (Human, μM)” value [3] was “### (### is ≥75%)”.

With `O=C(OC(C(F)(F)F)C(F)(F)F)N1CCC2(CCCN2Cc2cc(C(F)(F)F)cc(C3(C(=O)O)CCCC3)c2)CC1` [Example 8, 1-(3-((8-(((1,1,1,3,3,3-Hexafluoropropan-2-yl)oxy)carbonyl)-1,8-diazaspiro[4.5]decan-1-yl)methyl)-5-(trifluoromethyl)phenyl)cyclopentane-1-carboxylic acid] the “% Inh ABHD6 Brain (Mouse, μM)” value [1] was “## (## is between 25 and 75%)”, the “% Inh MGLL Brain (Mouse, μM)” value [2] was “### (### is ≥75%)” and the “% Inh MGLL PFC (Human, μM)” value [3] was “### (### is ≥75%)”.

In the case of `CN(Cc1cccc(Cl)c1C1(C(=O)O)CCCC1)C1(C)CCN(C(=O)OC(C(F)(F)F)C(F)(F)F)CC1` [Example 9, 1-(2-Chloro-6-(((1-(((1,1,1,3,3,3-hexafluoropropan-2-yl)oxy)carbonyl)-4-methylpiperidin-4-yl)(methyl)amino)methyl)phenyl)cyclopentane-1-carboxylic acid], the “% Inh ABHD6 Brain (Mouse, μM)” value [1] is reported as “# (# is ≤25%)”, the “% Inh MGLL Brain (Mouse, μM)” value [2] is reported as “### (### is ≥75%)” and the “IC50 MGLL PC3 (Human, μM)” value [3] is reported as “* * *”. For the same molecule, the “% Inh MGLL PC3 (Human, μM)” value [3] was “### (### is ≥75%)”.

With `CN(Cc1ccc(C(F)(F)F)cc1N1CCC(C(=O)O)C1)C1(C)CCN(C(=O)OC(C(F)(F)F)C(F)(F)F)CC1` (stereo not drawn) [Example 118, l-(2-(((1-(((1,1,1,3,3,3-Hexailuoropropan-2-yl)oxy)carbonyl)-4-methylpiperidin-4-yl)(methyl)amino)methyl)-5-(trifluoromethyl)phenyl)pyrrolidine-3-carboxylic acid] the “% Inh ABHD6 Brain (Mouse, μM)” value [1] was “## (## is between 25 and 75%)” and the “% Inh MGLL PFC (Human, μM)” value [3] was “### (### is ≥75%)”.

For `CC(=O)N1CC2(CCN(c3cc(Cl)cc(CN4CCCC45CN(C(=O)OC(C(F)(F)F)C(F)(F)F)C5)c3)CC2)C1` [Example 238, 1,1,1,3,3,3-Hexafluoropropan-2-yl 5-(3-(2-acetyl-2,7-diazaspiro[3.5]nonan-7-yl)-5-chlorobenzyl)-2,5- .diazaspiro[3.4]octane-2-carboxylate], the “% Inh ABHD6 Brain (Mouse, μM)” value [1] was “### (### is ≥75%)” and the “% Inh MGLL Brain (Mouse, μM)” value [2] was “### (### is ≥75%)”.

For `CCN1CCC2(CC1)CCN(c1cc(Cl)cc(CN3CCCC34CN(C(=O)OC(C(F)(F)F)C(F)(F)F)C4)c1)C2` [Example 239, 1,1,1,3,3,3-Hexafluoropropan-2-yl 5-(3-chloro-5-(8-ethyl-2,8-diazaspiro[4.5]decan-2-yl)benzyl)-2,5-diazaspiro[3,4]octane-2-carboxylate], the “% Inh ABHD6 Brain (Mouse, μM)” value [1] was “## (## is between 25 and 75%)” and the “% Inh MGLL Brain (Mouse, μM)” value [2] was “## (## is between 25 and 75%)”.

`CS(=O)(=O)N1CC2(CCN(c3cc(Cl)cc(CN4CCCC45CN(C(=O)OC(C(F)(F)F)C(F)(F)F)C5)c3)CC2)C1` [Example 240, 1,1,1,3,3,3-Hexafluoropropan-2-yl 5-(3-chloro-5-(2-(methylsulfonyl)-2,7-diazaspiro[3.5]nonan-7-yl)benzyl)-2,5-diazaspiro[3.4]octane-2-carboxylate] was tested, and the “% Inh ABHD6 Brain (Mouse, μM)” value [1] was “### (### is ≥75%)” and the “% Inh MGLL Brain (Mouse, μM)” value [2] was “### (### is ≥75%)”.

In the case of `CCN1CC2(CCN(c3cc(Cl)cc(CN4CCCC45CN(C(=O)OC(C(F)(F)F)C(F)(F)F)C5)c3)CC2)C1` [Example 241, 1,1,1,3,3,3-Hexafluoropropan-2-yl 5-(3-chloro-5-(2-ethyl-2,7-diazaspiro[3,5]nonan-7-yl)benzyl)-2,5-diazaspiro[3,4]octane-2-carboxylate], the “% Inh ABHD6 Brain (Mouse, μM)” value [1] is reported as “# (# is ≤25%)” and the “% Inh MGLL Brain (Mouse, μM)” value [2] is reported as “# (# is ≤25%)”.

`CS(=O)(=O)N1CCC2(CCN(c3cc(C(F)(F)F)ccc3CN3CCC4(CCN(C(=O)OC(C(F)(F)F)C(F)(F)F)C4)C3)CC2)C1` (stereo not drawn) [Example 242, 1,1,1,3,3,3-Hexafluoropropan-2-yl 7-(2-(2-(methylsulfonyl)-2,8-diazaspiro[4.5]decan-8-yl)-4-(trifluoromethyl)benzyl)-2,7-diazaspiro[4.4]nonane-2-carboxylate] was tested, and the “% Inh ABHD6 Brain (Mouse, μM)” value [1] was “## (## is between 25 and 75%)” and the “% Inh MGLL Brain (Mouse, μM)” value [2] was “### (### is ≥75%)”.

— patent US11161856B2 (H. Lundbeck A/S, priority 2017, dated 2021)
